These results are taken from ChEMBL document CHEMBL4651402, “Screening of ~5500 FDA-approved drugs and clinical candidates for anti-SARS-CoV-2 activity” (2021).

Series [1] relates to SARS-CoV-2. Description: microbe, parasite or virus in culture. As to conditions: Severe acute respiratory syndrome coronavirus 2, Vero C1008, 48 h.
The test system of series [2] is SARS-CoV-2. Description: microbe, parasite or virus in culture. Format: functional, organism-based, Chlorocebus sabaeus, Vero C1008. As to conditions: Severe acute respiratory syndrome coronavirus 2, Vero C1008, 48 h.
Another series can be described thus: in vitro. As to conditions: chlorocebus sabaeus, Vero E6 (Vero C1008) cells.

Molecules are shown by their SMILES. Some results are limits rather than exact numbers.

As for `O=C1NC2CCCCN2C12CCN(CCCN1c3ccccc3CCc3ccc(Cl)cc31)CC2` (stereo not drawn) [MOSAPRAMINE], the IC50 with SARS-CoV-2 [1] was 7.41 µM; in the series with SARS-CoV-2 [1] (read-out: pIC50 (converted)), 7.41 µM; with SARS-CoV-2 [2] (read-out: IC50) it was more than 100 µM; with SARS-CoV-2 [2] (read-out: pIC50 (converted)) it was more than 100 µM. Also, the CC50 at 48 h in “in vitro” (CC50) and in the series “in vitro” (pCC50) was 8.13 µM in each case.
`CN1CCN(CCCN2c3ccccc3Sc3ccc(S(=O)(=O)N(C)C)cc32)CC1` [THIOPROPERAZINE]: the IC50 is 13.2 µM with SARS-CoV-2 [1], 13.2 µM with SARS-CoV-2 [1] (read-out: pIC50 (converted)), more than 100 µM in the series on SARS-CoV-2 [2] (read-out: IC50) and more than 100 µM with SARS-CoV-2 [2] (read-out: pIC50 (converted)). For the same molecule, the 50% cytotoxic concentration (CC50) at 48 h in “in vitro” (CC50) and in “in vitro” (pCC50) was 6.31 µM throughout.
`CNCCC=C1c2ccccc2C=Cc2ccccc21`: the IC50 in the series on SARS-CoV-2 [1], in the series with SARS-CoV-2 [1] (read-out: pIC50 (converted)), in the series with SARS-CoV-2 [2] (read-out: IC50) and in the series on SARS-CoV-2 [2] (read-out: pIC50 (converted)) was more than 50.1 µM each time. Besides, the CC50 at 48 h in the series “in vitro” (CC50) and in the series “in vitro” (pCC50) was 23.4 µM each time.
In the case of `CCCSc1ccccc1N1CCN(CCCCn2c(=O)[nH]c3ccccc3c2=O)CC1` [TIOPERIDONE], the IC50 is 9.12 µM in the series on SARS-CoV-2 [1], 9.12 µM in the series on SARS-CoV-2 [1] (read-out: pIC50 (converted)), more than 100 µM with SARS-CoV-2 [2] (read-out: IC50) and more than 100 µM in the series with SARS-CoV-2 [2] (read-out: pIC50 (converted)). The CC50 at 48 h in the series “in vitro” (CC50) and in “in vitro” (pCC50) was 7.24 µM each time.
Consider `Cc1cccc(C)c1NC(=O)CN1CCN(CCCC(c2ccc(F)cc2)c2ccc(F)cc2)CC1` [LIDOFLAZINE], for which the IC50 in the series with SARS-CoV-2 [1] was 9.55 µM; with SARS-CoV-2 [1] (read-out: pIC50 (converted)), 9.55 µM; in the series with SARS-CoV-2 [2] (read-out: IC50), more than 100 µM; in the series with SARS-CoV-2 [2] (read-out: pIC50 (converted)), more than 100 µM. In addition, the results for the CC50 at 48 h in “in vitro” (CC50) and in “in vitro” (pCC50) were 8.41 µM and 8.32 µM, respectively.
As to `COc1ccc2c(c1)CCC(c1ccccc1)=C2c1ccc(OCCN2CCCC2)cc1` [NAFOXIDINE], the IC50 with SARS-CoV-2 [1], in the series on SARS-CoV-2 [1] (read-out: pIC50 (converted)), with SARS-CoV-2 [2] (read-out: IC50) and with SARS-CoV-2 [2] (read-out: pIC50 (converted)) was more than 100 µM throughout. The CC50 at 48 h in “in vitro” (CC50) is 3.85 µM; in the series “in vitro” (pCC50), 3.8 µM.
Consider `Clc1ccc(-c2nn(Cc3ccccc3)c3c2CCNCC3)cc1` [JNJ-18038683 FREE BASE], for which the IC50 with SARS-CoV-2 [1], in the series with SARS-CoV-2 [1] (read-out: pIC50 (converted)), with SARS-CoV-2 [2] (read-out: IC50) and with SARS-CoV-2 [2] (read-out: pIC50 (converted)) was more than 25.1 µM throughout. The CC50 at 48 h in “in vitro” (CC50) was 14.6 µM; in “in vitro” (pCC50), 14.5 µM.
In the case of `Cc1ccc(C(=O)Nc2ccc(CN3CCN(C)CC3)c(C(F)(F)F)c2)cc1C#Cc1cnc2cccnn12` [PONATINIB], the IC50 in the series on SARS-CoV-2 [1], with SARS-CoV-2 [1] (read-out: pIC50 (converted)), with SARS-CoV-2 [2] (read-out: IC50) and in the series with SARS-CoV-2 [2] (read-out: pIC50 (converted)) was more than 100 µM throughout. For the same molecule, the 50% cytotoxic concentration (CC50) at 48 h is 0.989 µM in “in vitro” (CC50) and 0.977 µM in the series “in vitro” (pCC50).
In the case of `O=c1ccc2ccc(OCCCCN3CCN(c4cccc5sccc45)CC3)cc2[nH]1` [BREXPIPRAZOLE], the IC50 in the series on SARS-CoV-2 [1], in the series with SARS-CoV-2 [1] (read-out: pIC50 (converted)), in the series with SARS-CoV-2 [2] (read-out: IC50) and in the series with SARS-CoV-2 [2] (read-out: pIC50 (converted)) was more than 100 µM in each case. The CC50 at 48 h in “in vitro” (CC50) and in “in vitro” (pCC50) was 12 µM throughout.
Consider `Cc1ccccc1CN1CCN(CCOC(c2ccccc2)c2ccccc2Cl)CC1` (stereo not drawn) [CHLORBENZOXAMINE], for which the IC50 is more than 100 µM in the series with SARS-CoV-2 [1], more than 100 µM in the series with SARS-CoV-2 [1] (read-out: pIC50 (converted)), more than 25.1 µM with SARS-CoV-2 [2] (read-out: IC50) and more than 25.1 µM in the series with SARS-CoV-2 [2] (read-out: pIC50 (converted)). In addition, the cytotoxic concentration (CC50) at 48 h in the series “in vitro” (CC50) was 15.3 µM; in the series “in vitro” (pCC50), 15.1 µM.
For the molecule `OC(Cn1cncn1)(Cn1cnc(/C=C/c2ccc(OCC(F)(F)C(F)F)cc2)n1)c1ccc(F)cc1F` (stereo not drawn), the IC50 in the series with SARS-CoV-2 [1], in the series on SARS-CoV-2 [1] (read-out: pIC50 (converted)), with SARS-CoV-2 [2] (read-out: IC50) and in the series on SARS-CoV-2 [2] (read-out: pIC50 (converted)) was more than 100 µM each time. Further, the CC50 at 48 h in the series “in vitro” (CC50) and in “in vitro” (pCC50) was 25.7 µM in each case.
For the molecule `CCC1=C[C@@H]2CN(C1)Cc1c([nH]c3ccccc13)[C@@](C(=O)OC)(c1cc3c(cc1OC)N(C)[C@H]1[C@@](O)(C(=O)OC)[C@H](OC(C)=O)[C@]4(CC)C=CCN5CC[C@]31[C@@H]54)C2` [VINORELBINE], the IC50 in the series on SARS-CoV-2 [2] (read-out: IC50) and with SARS-CoV-2 [2] (read-out: pIC50 (converted)) was more than 20 µM throughout. Also, the CC50 at 48 h in “in vitro” (CC50) and in “in vitro” (pCC50) was 14.5 µM each time.
Regarding `CN1CCCC(n2nc(Cc3ccc(Cl)cc3)c3ccccc3c2=O)CC1` (stereo not drawn) [AZELASTINE], the IC50 in the series on SARS-CoV-2 [1] was 13.3 µM; in the series with SARS-CoV-2 [1] (read-out: pIC50 (converted)), 13.2 µM; in the series on SARS-CoV-2 [2] (read-out: IC50), more than 100 µM; in the series on SARS-CoV-2 [2] (read-out: pIC50 (converted)) it was more than 100 µM. For the same molecule, the CC50 at 48 h in the series “in vitro” (CC50) and in the series “in vitro” (pCC50) was 17.8 µM in each case.
Consider `c1ccc(CN(CCN(Cc2ccccn2)Cc2ccccn2)Cc2ccccn2)nc1`, for which the IC50 is more than 3.09 µM with SARS-CoV-2 [1], more than 3.09 µM in the series with SARS-CoV-2 [1] (read-out: pIC50 (converted)), more than 100 µM in the series on SARS-CoV-2 [2] (read-out: IC50) and more than 100 µM in the series on SARS-CoV-2 [2] (read-out: pIC50 (converted)). Also, the CC50 at 48 h in “in vitro” (CC50) is 1.93 µM; in “in vitro” (pCC50), 1.91 µM.
For the molecule `CCn1cc(-c2ccnc3[nH]c(-c4cccc(CN(C)C)c4)cc23)c(-c2ccc(NC(=O)N(C)C)cc2)n1` [GSK-1070916], the IC50 in the series with SARS-CoV-2 [1], with SARS-CoV-2 [1] (read-out: pIC50 (converted)), in the series with SARS-CoV-2 [2] (read-out: IC50) and in the series on SARS-CoV-2 [2] (read-out: pIC50 (converted)) was more than 100 µM throughout. In addition, the CC50 at 48 h in “in vitro” (CC50) and in “in vitro” (pCC50) was 9.33 µM throughout.

As a reminder, the CC50 is the concentration giving 50% cytotoxicity. Read a low CC50 as harm at low concentration.
